A short description of data set [1]: Comparison between stabilizing reagents, lyophilized ceftolozane samples stored at 60° C. for 7 days, HPLC purity. The data set is classed as physicochemical. The conditions noted are these: without any stabilizing agent.
Data set [2] can be described thus: Residual rate of ceftolozane without stabilizing agent after 3 days at 70° C., HPLC. The format is physicochemical. The following applies: 100 mg of ceftolozane, no stabilizing agent.
Procedure: The purity of the ceftolozane in a composition comprising 100 mg ceftolozane was also evaluated with no stabilizing agent after 3 days at 70° C. by measuring the residual rate. The residual rate is measured by detecting the amount of ceftolozane in a sample before and after a stability test using HPLC, and determining the percentage of ceftolozane lost during the stability test.

Consider `Cn1c(N)c(NC(=O)NCCN)c[n+]1CC1=C(C(=O)[O-])N2C(=O)[C@@H](NC(=O)/C(=N\OC(C)(C)C(=O)O)c3nsc(N)n3)[C@H]2SC1` [Ceftolozane, (6R,7R)-3-[(5-amino-4-{[(2-aminoethyl)carbamoyl]amino}-1-methyl-1H-pyrazol-2-ium-2-yl)methyl]-7-({(2Z)-2-(5-amino-1,2,4-thiadiazol-3-yl)-2-[(1-carboxy-1-methylethoxy)imino]acetyl}amino)-8-oxo-5-thia-1-azabicyclo[4.2.0]oct-2-ene-2-carboxylate], for which, in data set [1], the “overall decrease in purity” value amounted to 5.88%. This compound showed a residual rate in data set [2] of 51.2%.

Source of the values: US20140274995A1, “PARENTERAL CEFTOLOZANE ANTIBIOTIC COMPOSITIONS” (Cubist Pharmaceuticals, Inc., priority 2013, published 2014).
